In patent US20240271082A1, “[…]-MODIFIED SAC[…] STRAINS AS PR[…] […] AGENTS” (Fzata, Inc., priority 2021, published 2024):

Experiments:
[1] = system: S. boulardii (Sb); assay: Methotrexate effective dose in S. boulardii; format: cell-based; conditions: MTX alone, up to 500 nM, 24 hour reading
Method: Cells were seeded at OD=0.2, 24 hour reading.

[2] = target: hTNF-α (Homo sapiens, UniProt P01375); assay: Neutralization of human TNF-α cytotoxicity on L929 cells; conditions: read-out: IC50, block hTNF-α-induced cytotoxicity
hTNF-α, sequence (P01375 77-233 limits assumed): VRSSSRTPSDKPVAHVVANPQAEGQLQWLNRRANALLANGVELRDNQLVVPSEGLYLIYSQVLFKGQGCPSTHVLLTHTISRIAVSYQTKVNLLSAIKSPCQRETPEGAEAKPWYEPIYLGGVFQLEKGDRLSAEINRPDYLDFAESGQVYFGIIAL
Method: After 24h incubation, the antibody-mediated inhibitions of cytotoxicity were measured.

[3] = system: patients with COVID-19 pneumonia and systemic hyperinflammation; conditions: human, in vivo; cited from earlier work
[4] = system: Crohn's disease; conditions: systemic administration; cited from earlier work

In the case of CN(Cc1cnc2nc(N)nc(N)c2n1)c1ccc(C(=O)N[C@@H](CCC(=O)O)C(=O)O)cc1 [MTX, methotrexate], the “growth inhibition of S. boulardii” value [1] is reported as “not enough to cause an effect on growth inhibition”.

Compound Adalimumab [Humira] has an IC50 [2] of 0.028 nM.

In the case of “Mavrilimumab: investigational fully-human monoclonal antibody that targets GM-CSF receptor alpha”, the “proportion of patients alive and off oxygen therapy at day 14” value [3] is given as “hyperinflammation. Unfortunately, there was no significant difference”.

In the case of “infliximab: anti-TNF monoclonal antibody”, the “clinical response in Crohn's disease” value [4] is listed as “drastic clinical improvement”.
